Test results from patent US11230535B2, “CFTR regulators and methods of use thereof” (THE REGENTS OF THE UNIVERSITY OF CALIFORNIA, priority 2015, dated 2022).

The molecules below were run against human wild-type CFTR (Homo sapiens, UniProt P13569) (assay: Cell-based plate reader (YFP iodide influx) assay of CFTR function). Conditions: N,N-diethyl-N′-aryl-1,3,5-triazine diamine analogs; read-out: EC50 for CFTR activation.
Parameters: expressed in transfected cells; host or cells: Fischer rat thyroid (FRT) cells stably co-expressing YFP-H148Q
Protocol: The initiate rate of I^− influx was computed by determined using exponential regression. All compound plates contained negative controls (DMSO vehicle) and positive controls (20 μM forskolin).
High-throughput screening. […] The initiate rate of I^− influx was computed by determined using exponential regression. All compound plates contained negative controls (DMSO vehicle) and positive controls ([…] forskolin).
Platereader assays of chloride channel function. CFTR activity was assayed as described. […] I^− influx was measured in a plate reader with initial baseline read for 2 s and then for 12 s after rapid addition of an I^−-containing solution. TMEM16A activity was assayed similarly as described using FRT cells co-expressing YFP and TMEM16A. Activity of non-TMEM16A CaCC was assayed as described in HT-29 cells expressing YFP. In each assay initial rates of I^− influx were computed as a linear measure of channel function.

Sequence of human wild-type CFTR (P13569 whole entry): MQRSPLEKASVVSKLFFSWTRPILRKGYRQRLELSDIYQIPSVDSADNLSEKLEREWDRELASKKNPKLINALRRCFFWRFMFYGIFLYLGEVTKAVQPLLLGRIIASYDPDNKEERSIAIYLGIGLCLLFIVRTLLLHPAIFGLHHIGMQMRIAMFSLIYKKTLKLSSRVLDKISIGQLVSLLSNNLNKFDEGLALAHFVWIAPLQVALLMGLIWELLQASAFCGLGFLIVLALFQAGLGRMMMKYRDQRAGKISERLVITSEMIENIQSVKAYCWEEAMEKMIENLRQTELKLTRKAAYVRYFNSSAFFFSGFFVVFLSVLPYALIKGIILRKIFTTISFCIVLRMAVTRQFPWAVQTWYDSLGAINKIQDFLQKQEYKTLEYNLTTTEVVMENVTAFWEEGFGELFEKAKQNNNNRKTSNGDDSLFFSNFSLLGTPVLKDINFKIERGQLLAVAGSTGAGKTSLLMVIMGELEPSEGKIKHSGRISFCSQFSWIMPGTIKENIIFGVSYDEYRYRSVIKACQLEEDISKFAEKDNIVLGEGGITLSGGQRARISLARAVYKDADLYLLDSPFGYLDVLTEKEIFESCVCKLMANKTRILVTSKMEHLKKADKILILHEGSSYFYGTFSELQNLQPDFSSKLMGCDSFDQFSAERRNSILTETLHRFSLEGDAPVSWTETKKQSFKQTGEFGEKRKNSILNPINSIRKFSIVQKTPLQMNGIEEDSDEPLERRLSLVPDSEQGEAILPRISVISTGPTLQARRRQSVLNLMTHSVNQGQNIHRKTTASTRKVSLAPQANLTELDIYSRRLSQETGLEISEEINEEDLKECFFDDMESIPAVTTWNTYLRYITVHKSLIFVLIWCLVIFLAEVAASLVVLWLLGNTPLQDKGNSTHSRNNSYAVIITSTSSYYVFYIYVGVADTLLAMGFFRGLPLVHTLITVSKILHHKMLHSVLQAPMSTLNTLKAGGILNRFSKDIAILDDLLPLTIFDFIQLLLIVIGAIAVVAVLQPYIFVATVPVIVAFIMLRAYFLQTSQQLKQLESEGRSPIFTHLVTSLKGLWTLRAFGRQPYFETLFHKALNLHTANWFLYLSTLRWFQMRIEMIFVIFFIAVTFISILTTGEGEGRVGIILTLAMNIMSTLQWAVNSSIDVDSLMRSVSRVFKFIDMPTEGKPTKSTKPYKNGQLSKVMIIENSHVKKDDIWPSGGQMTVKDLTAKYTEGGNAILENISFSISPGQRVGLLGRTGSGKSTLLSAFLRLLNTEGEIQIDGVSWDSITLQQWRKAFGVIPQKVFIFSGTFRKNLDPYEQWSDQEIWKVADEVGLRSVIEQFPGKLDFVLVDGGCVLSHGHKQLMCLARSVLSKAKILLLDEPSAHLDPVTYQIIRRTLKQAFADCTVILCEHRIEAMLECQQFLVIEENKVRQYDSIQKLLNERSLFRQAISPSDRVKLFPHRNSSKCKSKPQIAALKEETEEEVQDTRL

Point of comparison: `CCN(CC)c1nc(Nc2cccc(F)c2)nc(OC(C(F)(F)F)C(F)(F)F)n1` [6b, N,N-Diethyl-N′-(3-fluorophenyl)-6-[(1,1,1,3,3,3-hexafluoropropan-2-yl)oxy]-1,3,5-triazine-2,4-diamine], EC50 140 nM. Against it:
- CCN(CC)c1nc(Nc2cccc(C(=O)O)c2)nc(OC(C(F)(F)F)C(F)(F)F)n1 [6a, 3-({4-(diethylamino)-6-[(1,1,1,3,3,3-hexafluoropropan-2-yl)oxy]-1,3,5-triazin-2-yl}amino)benzoic acid] — within 1.5-fold, 160 nM
- CCN(CC)c1nc(Nc2ccc(C(=O)O)cc2)nc(OC(C(F)(F)F)C(F)(F)F)n1 [6e, 4-({4-(Diethylamino)-6-[(1,1,1,3,3,3-hexafluoropropan-2-yl)oxy]-1,3,5-triazin-2-yl}amino)benzoic acid] — 6.4-fold higher, 900 nM
- CCN(CC)c1nc(Nc2ccc(F)cc2)nc(OC(C(F)(F)F)C(F)(F)F)n1 [6f, N,N-Diethyl-N′-(4-fluorophenyl)-6-[(1,1,1,3,3,3-hexafluoropropan-2-yl)oxy]-1,3,5-triazine-2,4-diamine] — 5-fold higher, 700 nM
- CCN(CC)c1nc(Nc2ccc([N+](=O)[O-])cc2)nc(OC(C(F)(F)F)C(F)(F)F)n1 [6g, N,N-Diethyl-6-[(1,1,1,3,3,3-hexafluoropropan-2-yl)oxy]-N-(4-nitrophenyl)-1,3,5-triazine-2,4-diamine] — 130-fold higher, 18000 nM
- CCN(CC)c1nc(Nc2ccccc2)nc(OCC(F)(F)C(F)F)n1 [7a, N,N-Diethyl-N′-phenyl-6-(2,2,3,3-tetrafluoropropoxy)-1,3,5-triazine-2,4-diamine] — 14-fold higher, 2000 nM
- CCN(CC)c1nc(Nc2cccc(C(=O)O)c2)nc(OCC(F)(F)C(F)F)n1 [7b, 3-{[4-(Diethylamino)-6-(2,2,3,3-tetrafluoropropoxy)-1,3,5-triazin-2-yl]amino}benzoic acid] — 3.6-fold higher, 500 nM
- CCN(CC)c1nc(Nc2cccc(F)c2)nc(OCC(F)(F)C(F)F)n1 [7c, N,N-Diethyl-N′-(3-fluorophenyl)-6-(2,2,3,3-tetrafluoropropoxy)-1,3,5-triazine-2,4-diamine] — 11-fold higher, 1600 nM
- CCN(CC)c1nc(Nc2cccc(Cl)c2)nc(OCC(F)(F)C(F)F)n1 [7d, N′-(3-Chlorophenyl)-N,N-diethyl-6-(2,2,3,3-tetrafluoropropoxy)-1,3,5-triazine-2,4-diamine] — 39-fold higher, 5400 nM
- CCN(CC)c1nc(Nc2cccc([N+](=O)[O-])c2)nc(OCC(F)(F)C(F)F)n1 [7e, N,N-Diethyl-N′-(3-nitrophenyl)-6-(2,2,3,3-tetrafluoropropoxy)-1,3,5-triazine-2,4-diamine] — 8.6-fold higher, 1200 nM
- CCN(CC)c1nc(Nc2ccc(F)cc2)nc(OCC(F)(F)C(F)F)n1 [7g, N,N-Diethyl-N′-(4-fluorophenyl)-6-(2,2,3,3-tetrafluoropropoxy)-1,3,5-triazine-2,4-diamine] — 34-fold higher, 4800 nM

Same assay, conditions: bicyclic aniline analogs; read-out: EC50

`CCN(CC)c1nc(Nc2ccc3cn[nH]c3c2)nc(OC(C(F)(F)F)C(F)(F)F)n1` [6i, N,N-Diethyl-6-[(1,1,1,3,3,3-hexafluoropropan-2-yl)oxy]-N-(1H-indazol-6-yl)-1,3,5-triazine-2,4-diamine] gave an EC50 of 2800 nM.

Same assay, conditions: commercial analogs; FRT cells with YFP and wildtype CFTR, 125 nM forskolin

Point of comparison: `CC(=O)c1ccc(Nc2nc(OC(C(F)(F)F)C(F)(F)F)nc(OC(C(F)(F)F)C(F)(F)F)n2)cc1` [K016], “% Activation” value 19%. Against it:
- CNc1nc(Nc2ccc(C(C)=O)cc2)nc(OC(C(F)(F)F)C(F)(F)F)n1 [K001] — higher, 32%
- C=CCNc1nc(Nc2ccc(F)cc2)nc(OC(C(F)(F)F)C(F)(F)F)n1 [K002] — higher, 63%
- CC(C)(C)Nc1nc(Nc2ccc(OC(F)(F)F)cc2)nc(OCC(F)(F)F)n1 [K003] — lower, 16%
- FC(F)(F)C(Oc1nc(Nc2cccc3ccccc23)nc(OC(C(F)(F)F)C(F)(F)F)n1)C(F)(F)F [K004] — lower, 16%
- O=[N+]([O-])c1ccccc1Nc1nc(OCC(F)(F)F)nc(OCC(F)(F)F)n1 [K005] — higher, 29%
- CNc1nc(Nc2ccccc2C(F)(F)F)nc(OC(C(F)(F)F)C(F)(F)F)n1 [K007] — higher, 21%
- COc1nc(Nc2ccccc2)nc(Nc2ccccc2)n1 [K008] — higher, 32%
- CCOc1nc(Nc2ccccc2)nc(NC2CCCC2)n1 [K009] — higher, 57%
- FC(F)(F)C(Oc1nc(Nc2ccccc2)nc(OC(C(F)(F)F)C(F)(F)F)n1)C(F)(F)F [K010] — higher, 21%
- Cc1ccc(Nc2nc(OC(C(F)(F)F)C(F)(F)F)nc(OC(C(F)(F)F)C(F)(F)F)n2)cc1 [K011] — higher, 20%
- Cc1ccccc1Nc1nc(OC(C(F)(F)F)C(F)(F)F)nc(OC(C(F)(F)F)C(F)(F)F)n1 [K012] — the same, 19%
- O=[N+]([O-])c1ccccc1Nc1nc(OC(C(F)(F)F)C(F)(F)F)nc(OC(C(F)(F)F)C(F)(F)F)n1 [K013] — lower, 15%
- O=[N+]([O-])c1cccc(Nc2nc(OC(C(F)(F)F)C(F)(F)F)nc(OC(C(F)(F)F)C(F)(F)F)n2)c1 [K014] — lower, 18%
- O=[N+]([O-])c1ccc(Nc2nc(OC(C(F)(F)F)C(F)(F)F)nc(OC(C(F)(F)F)C(F)(F)F)n2)cc1 [K015] — lower, 6%
- FC(F)(F)C(Oc1nc(Nc2cccnc2)nc(OC(C(F)(F)F)C(F)(F)F)n1)C(F)(F)F [K017] — lower, 16%
- FC(F)(F)COc1nc(Nc2ccccc2)nc(OCC(F)(F)F)n1 [K018] — higher, 60%
- Cc1ccccc1Nc1nc(OCC(F)(F)F)nc(OCC(F)(F)F)n1 [K019] — higher, 28%
- CNc1nc(OCC(F)(F)F)nc(N(c2ccccc2)c2ccccc2)n1 [K020] — higher, 37%
- COc1nc(NCCN2CCOCC2)nc(Nc2ccccc2)n1 [K021] — lower, 16%
- COc1nc(Nc2ccc(Cl)cc2)nc(NC(C)(C)C)n1 [K022] — higher, 53%
- COc1nc(Nc2ccc([N+](=O)[O-])cc2)nc(OC)n1 [K023] — higher, 41%
- CNc1nc(Nc2ccc(OC(F)(F)Cl)cc2)nc(OCC(F)(F)F)n1 [K024] — higher, 64%
- FC(F)(F)COc1nc(Nc2ccc(OC(F)(F)Cl)cc2)nc(OCC(F)(F)F)n1 [K026] — lower, 16%
- CC(C)Nc1nc(Nc2ccc([N+](=O)[O-])cc2)nc(OC(C(F)(F)F)C(F)(F)F)n1 [K027] — higher, 20%
- COc1nc(Nc2ccc(OC)c(Cl)c2)nc(OC)n1 [K028] — higher, 23%
- CC(C)(C)Nc1nc(Nc2ccc(OC(F)(F)Cl)cc2)nc(OCC(F)(F)F)n1 [K029] — lower, 9%
- CCCCNc1nc(Nc2ccc(OC(F)(F)F)cc2)nc(OCC(F)(F)F)n1 [K030] — lower, 16%
- COc1nc(Nc2ccc(O)cc2)nc(OC(C(F)(F)F)C(F)(F)F)n1 [K031] — higher, 61%
- COc1nc(NCCO)nc(Nc2ccc(Cl)cc2)n1 [K033] — higher, 22%
- C=CCNc1nc(Nc2ccc(Cl)cc2)nc(OC)n1 [K034] — higher, 73%
- COc1nc(Nc2ccc(Cl)cc2)nc(NC2CCCCC2)n1 [K035] — higher, 55%
- CCCCCCNc1nc(Nc2ccc(Cl)cc2)nc(OCC)n1 [K036] — higher, 46%
- CCOc1nc(Nc2ccc(Cl)cc2)nc(NC2CCCCC2)n1 [K038] — higher, 53%
- CCCCCCNc1nc(Nc2ccc(I)cc2)nc(OC)n1 [K039] — higher, 27%
- COc1nc(NCCO)nc(Nc2ccc(I)cc2)n1 [K040] — lower, 17%
- C=CCNc1nc(Nc2ccc(I)cc2)nc(OC)n1 [K041] — higher, 35%
- COc1nc(Nc2ccc(I)cc2)nc(OC2CCCCC2)n1 [K042] — lower, 15%
- CCOc1nc(NCCO)nc(Nc2ccc(I)cc2)n1 [K043] — the same, 19%
- C=CCNc1nc(Nc2ccc(I)cc2)nc(OCC)n1 [K044] — higher, 55%
- CCOc1nc(NCCN2CCOCC2)nc(Nc2ccc(I)cc2)n1 [K045] — lower, 15%
- CCOc1nc(Nc2ccc(I)cc2)nc(NC2CCCCC2)n1 [K046] — lower, 16%
- COc1nc(NCCO)nc(Nc2ccc([N+](=O)[O-])cc2)n1 [K047] — lower, 17%
- C=CCNc1nc(Nc2ccc([N+](=O)[O-])cc2)nc(OC)n1 [K048] — higher, 46%
- CCOc1nc(NCCO)nc(Nc2ccc([N+](=O)[O-])cc2)n1 [K049] — higher, 28%
- C=CCNc1nc(Nc2ccc([N+](=O)[O-])cc2)nc(OCC)n1 [K050] — higher, 66%
- CCOc1nc(Nc2ccc([N+](=O)[O-])cc2)nc(NC2CCCCC2)n1 [K051] — higher, 45%
- C=CCNc1nc(Nc2ccc(I)cc2C)nc(OCC)n1 [K053] — higher, 24%
- CCOc1nc(Nc2ccc(I)cc2C)nc(NC2CCCCC2)n1 [K054] — lower, 14%
- CN(C)c1nc(OC(C(F)(F)F)C(F)(F)F)nc(N(c2ccccc2)c2ccccc2)n1 [K055] — higher, 42%
- CCC(C)Nc1nc(Nc2ccc([N+](=O)[O-])cc2)nc(OC(C(F)(F)F)C(F)(F)F)n1 (stereo not drawn) [K056] — higher, 38%
- FC(F)(F)COc1nc(N2CCCCC2)nc(N(c2ccccc2)c2ccccc2)n1 [K057] — higher, 28%
- C=CCNc1nc(OC(C(F)(F)F)C(F)(F)F)nc(N(c2ccccc2)c2ccccc2)n1 [K058] — higher, 37%
- C=CCNc1nc(Nc2cccc([N+](=O)[O-])c2)nc(OC(C(F)(F)F)C(F)(F)F)n1 [K059] — higher, 90%
- COc1ccc(Nc2nc(NC3CCCCC3)nc(OC(C(F)(F)F)C(F)(F)F)n2)cc1 [K060] — higher, 38%
- Cc1ccc(Nc2nc(OC(C(F)(F)F)C(F)(F)F)nc(N3CCCCC3)n2)cc1 [K061] — higher, 31%

Same assay, conditions: commercial analogs; read-out: EC50 (full-dose response assay, compounds >80% activation)

With `C=CCNc1nc(Nc2cccc([N+](=O)[O-])c2)nc(OC(C(F)(F)F)C(F)(F)F)n1` [K059] the EC50 was 750 nM.
